Source: US20040023884A1, “Biologically active peptides from functional domains of bactericidal/permeability-increasing protein and uses thereof” (priority 1993, published 2004)
Entries after “also recorded” stand apart in the source; their conditions may differ. Ends that are not written are not given here.

Key:
[1] = tested on: E. coli 0113 LPS; experiment: Limulus Amoebocyte Lysate (LAL) inhibition assay; assay type: biochemical
Outline: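 BPI proteolytic fragments incubated with E. coli 0113 LPS (4 ng/mL final) for 3 h at 37 °C, then diluted in D-PBS to 200 pg/mL LPS for chromogenic LAL. Lysate 25 min, substrate 20–30 min at room temperature, acetic acid stop; OD405 expressed as percent LPS inhibition.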

[2] = In vitro heparin-mediated lengthening of APTT / clotting time of heparinized plasma; assay type: biochemical, human; details: for effect on the clotting time of heparinized blood (in words): FIG. 12g; for effect on heparin-mediated lengthening of APTT (in words): citrated human plasma, 25 μg/mL heparin, 0.0 to 56 μg/mL
Procedure: In vitro, the effect of BPI combination functional domain peptides was determined on heparin-mediated lengthening of activated partial […] (APTT). The APTT is lengthened by the presence of endogenous or exogenous inhibitors of thrombin formation, such as therapeutically administered heparin. Thus, agents which neutralize the anti-coagulant effects of heparin will reduce the APTT measured by the test. Citrated human plasma (200 μL) was incubated for 1 minute at 37° C. with either 15 μL of diluent (0.15 M NaCl, 0.1 M Tris-HCl, pH 7.4) or 15 μL of the diluent also containing 25 μg/mL heparin (187 units/mg). Various concentrations (from 0.0 to 56 μg/mL) of rBPI23, rBPI21Δcys, or BPI combination peptides BPI.29 (the DIII homodimer) and BPI.30 (heterodimer DII+DIII) in a volume of 15 μL were added, followed immediately by 100 μL of thrombin reagent (Catalog No. 845-4, Sigma Chemical Co., St. Louis. MO). Clotting time ([…]) was measured using a BBL Fibrometer (Becton Dickenson Microbiology Systems, Cockeysville, Md.). […] FIG. 12e illustrates the results obtained with BPI.30 on a non-log scale.

[3] = tested on: LPS-stimulated NO production by RAW 264.7 cells; experiment: LPS-stimulated NO production by RAW 264.7 cells; assay type: cell-based, mouse; details: for IC50 NO assay: LPS-stimulated NO production by RAW 264.7 cells
Procedure: An additional LPS neutralization screening assay for BPI functional domain peptides was developed using an assay for NO production in mouse cells treated with LPS (see Lorsbach et al., 1993, J. Biol. Chem. 268: 1908-1913). In this assay, mouse RAW 264.7 cells (ATCC Accession No. TIB71) were treated with bacterial LPS. The cells were incubated in 96-well plates and stimulated for 2 hours with E. coli 0113 LPS or zymosan, in the presence or absence of _-interferon, rLBP, fetal bovine serum (FBS) or normal human serum (NHS), or rBPI21Δcys. After this incubation, the cells were washed with fresh media and incubated overnight in media containing 10% FCS. The NO released from the cells accumulated in the media and spontaneously converted to nitrite. This nitrite was assayed in situ by the Griess reaction, as follows. The nitrite was reacted with the primary amine of an added sulfanilamide and formed a diazonium salt. This salt was then reacted with added naphthylethylenediamine to form a red azo-dyc. The Griess reaction was performed at room temperature in about 10 minutes. The amount of produced NO was estimated from a standard curve of Griess reaction products determined spectrophotometrically as Absorbance at a wavelength of 550 nm.

[4] = tested on: E. coli strain 07-K1; experiment: Radial diffusion bactericidal assay, E. coli 07-K1; assay type: cell-based; details: FIG. 10c
Procedure: BPI proteolytic fragments produced according to Example 1 were screened for bactericidal effects using rough mutant E. coli J5 bacteria in a radial diffusion assay. Specifically, an overnight culture of E. coli J5 was diluted 1:50 into fresh tryptic soy broth and incubated for 3 hours at 37° C. to attain log phase growth of the culture. Bacteria were then pelleted at 3,000 rpm for 5 minutes in a Sorvall RT6000B centrifuge (Sorvall Instruments, Newton, Conn.). 5 mL of 10 mM sodium phosphate buffer (pH 7.4) was added and the preparation was re-pelleted. […] The bacteria were diluted to 4×10^6 CFU/mL in 10 mL of molten underlayer agarose (at approximately 45° C.) and inverted repeatedly to mix in 15 mL polypropylene tubes conventionally used for this purpose.
The entire contents of such tubes were then poured into a level square petri dish and distributed evenly by rocking the dish side-to-side. […] A series of wells were then punched into the hardened agarose using a sterile 3 mm punch attached to a vacuum apparatus. The punch was sterilized with 100% alcohol and allowed to air dry prior to use to avoid contaminating the bacterial culture.
5 or 10 μL of each of the BPI fragments were carefully pipetted into each well. As a negative control, dilution buffer (pH 8.3) was added to a separate well, and rBPI23 at concentrations of 5 μg/mL and 1 μg/mL were also added as positive controls. Each plate was incubated at 37° C. for 3 hours, and then 10 mL of molten overlayer agarose (at approximately 45° C.) was added into the level petri dish, allowed to harden and incubated overnight at 37° C. […] The bacterial zones were measured with a micrometer.
Additional experiments were performed using various other bacteria as target cells to examine the range of bactericidal killing of these BPI functional domain peptides.

Substance | LAL / LPS inhibition activity (in words) [1] | effect on the clotting time of heparinized blood (in words) [2] | inhibition of LPS-stimulated NO production (in words) [3] | IC50 NO assay [3] | bactericidal activity (in words) [4] | effect on heparin-mediated lengthening of APTT (in words) [2]
IKISGKWKAQKRFLK [BPI.2] | no significant LPS inhibition activity | less of a decrease in clotting times | – | – | – | –
KSKVGWLIQLFHKK-NH2 (C-terminus assumed) [BPI.13] | – | – | detectable levels of LPS neutralization | 16 µg/mL | low levels of bactericidal activity | –
KSKVGWLIQLFHKKKSKVGWLIQLFHKK-NH2 (C-terminus assumed) [BPI.29] | – | greatest effect | detectable levels of LPS neutralization | 2.4 µg/mL | moderate bactericidal activity | inhibit the heparin-mediated lengthening of APTT
KWKAQKRFLKKSKVGWLIQLFHKK-NH2 (C-terminus assumed) [BPI.30] | – | greatest effect | detectable levels of LPS neutralization | – | high levels of bactericidal activity | inhibit the heparin-mediated lengthening of APTT
KWKAQKRFLKKWKAQKRFLK-NH2 (C-terminus assumed) [BPI.7] | significant LPS inhibition properties | greatest effect; also recorded: less of a decrease in clotting times | – | Not Inhibitory | high levels of bactericidal activity | –
NVGLKFSISNANIKISGKWKAQKRFLK [BPI.3] | moderate LPS inhibition activity | smaller effect | detectable levels of LPS neutralization | – | – | –
